The text below walks through data of article PMC11151202 (Molecular Pharmaceutics, 2024).

Converted amounts (≈) assume the structure as drawn. Some results are limits rather than exact numbers.

A short description of one data set: Biorelevant solubility. The format is physicochemical. Particulars: 37 °C, biorelevant media pH 6.5 (3 mM taurocholate, 0.75 mM phospholipids), mean ± SD, n = 3. The protocol:
The media utilized in this experiment were composed of 2 mM Tris-maleate, 150 mM NaCl, and 1.06 mM CaCl2. The pH of the media was adjusted to pH 6.5. The media were supplemented with FaSSIF powder a day prior to the experiment, resulting in a composition of the final biorelevant media of 3 mM taurocholate and 0.75 mM phospholipids. This final solution will be referred to as the “biorelevant media” throughout this paper. The biorelevant media was left at room temperature at least 2 h prior to usage. […] The suspensions were placed in an oven at 37 °C and were stirred at 200 rpm. Samples were taken at time points of 3, 6, and 24 h and centrifuged at 21,380g (Mikro 200 R, Hettich GmbH, Germany) for 30 min at 37 °C. The resulting supernatant was transferred to a new sample tube and centrifuged again under identical conditions. Samples were diluted 1:10 (v/v) with the mobile phase before analysis. The samples were analyzed using an Agilent 1200 series HPLC system (Agilent Technology Inc., United States) via HPLC, as described above.

Data set [1] in a line: Equilibrium solubility studies in lipid excipients / LBFs. The format is physicochemical. As to conditions: 37 °C, venetoclax free base equivalents. On the procedure:
Samples were stirred at 200 rpm (Mixdrive 15 2MAG, Germany) at 37 °C. Samples were withdrawn after 24, 48, and 72 h, followed by centrifugation at 21,000g (Mikro 200R Andreas Hettich GmbH & Co. KG, Germany) for 30 min. The supernatant was extracted and centrifuged again under identical conditions. The resulting supernatant was solubilized 1:10 v/v in a mixture of acetonitrile and ethyl acetate (1:4 v/v), followed by a further 1:10 v/v dilution in acetonitrile and ethyl acetate (4:1 v/v). Samples were analyzed by HPLC as per the method above. All samples were analyzed in triplicate.

Data set [2] in a line: Saturation during in vitro testing (saturation ratio). The format is physicochemical. Particulars: all cases: medium- and long-chain LBFs, after dispersion and digestion. On the procedure: The degree of saturation of drug concentrations in the aqueous phase during the in vitro lipolysis experiment was measured by comparing the measured aqueous phase concentration to the equilibrium drug solubility in samples containing dispersed and digested nondrug loaded formulations under identical conditions. Excess drug or lipophilic salt was added to 2 mL samples of the blank aqueous phase and stirred at 37 °C for 24 h. Samples were withdrawn, centrifuged, and analyzed under conditions identical to those in Section 2.2.9. […] Saturation ratios were evaluated at the end of the dispersion phase and the end of the digestion phase.

The conditions of data set [3]: cited from earlier work.
Data set [4] can be described thus: In vitro lipolysis (dispersion and digestion) of LBFs. The format is physicochemical. On the procedure: The LBFs were assayed using the in vitro lipolysis method[25] to assess the potential for formulations containing dissolved lipophilic salt to maintain the drug in a solubilized state as the formulation is dispersed and digested under simulated gastrointestinal conditions. Formulations utilized in this experiment were loaded at 80% equilibrium solubility as per Section 2.2.6, at drug doses outlined in Table 3.
The in vitro lipolysis experiments were performed using a pH stat apparatus (Metrohm AG, Herisau, Switzerland) comprising an 836 Titando, an 804 Ti Stand, a pH electrode (Metrohm), and two 800 Dosino 20 mL dosing units. The system was operated by Tiamo 2.5 software (Metrohm). The biorelevant medium described in Section 2.2.8 was used for this experiment. The pancreatin extract (8× USP) was reconstituted immediately prior to use by adding 5 mL of the biorelevant medium to 1 g of pancreatin, vortexed thoroughly, and centrifuged at 4000g for 15 min at 4 °C (Centrifuge 5702 R, Eppendorf, Germany); 4 mL of the resulting supernatant was recovered and immediately stored on ice before further usage. […] The amount of NaOH dispensed was recorded by the system and used to assess the rate and extent of digestion. […] As the formulation is a type III-A formulation, ultracentrifugation was not required as the lipids should readily disperse within the biorelevant medium.[25] […]

`CC1(C)CCC(CN2CCN(c3ccc(C(=O)NS(=O)(=O)c4ccc(NCC5CCOCC5)c([N+](=O)[O-])c4)c(Oc4cnc5[nH]ccc5c4)c3)CC2)=C(c2ccc(Cl)cc2)C1.CCCCCCCCOS(=O)(=O)O` [venetoclax octyl sulfate] showed a biorelevant solubility in “Biorelevant solubility” of 7.7 ± 0.6 µg/mL.
With `CC1(C)CCC(CN2CCN(c3ccc(C(=O)NS(=O)(=O)c4ccc(NCC5CCOCC5)c([N+](=O)[O-])c4)c(Oc4cnc5[nH]ccc5c4)c3)CC2)=C(c2ccc(Cl)cc2)C1.CCCCC(CC)COC(=O)CC(C(=O)OCC(CC)CCCC)S(=O)(=O)O` [venetoclax docusate], in data set [1], the “apparent equilibrium solubility in long-chain LBF” value is above 25 mg/g and the “apparent equilibrium solubility in medium-chain LBF” value is above 50 mg/g. The saturation ratio in data set [2] is given as below 10.3. Besides, in the data set “Biorelevant solubility”, the biorelevant solubility is 16.2 ± 1.6 µg/mL.
In turn, `CC1(C)CCC(CN2CCN(c3ccc(C(=O)NS(=O)(=O)c4ccc(NCC5CCOCC5)c([N+](=O)[O-])c4)c(Oc4cnc5[nH]ccc5c4)c3)CC2)=C(c2ccc(Cl)cc2)C1.CCCCCCCCCCCCCCCCCCOS(=O)(=O)O` [venetoclax octadecyl sulfate] displayed a biorelevant solubility in “Biorelevant solubility” of 8.4 ± 0.7 µg/mL.
For orientation: solubility means how much of the substance goes into solution per volume. As for `CC1(C)CCC(CN2CCN(c3ccc(C(=O)NS(=O)(=O)c4ccc(NCC5CCOCC5)c([N+](=O)[O-])c4)c(Oc4cnc5[nH]ccc5c4)c3)CC2)=C(c2ccc(Cl)cc2)C1` [venetoclax], the “solubility in medium- and long-chain triglycerides” value in data set [3] was below 1000 µg/mL. Besides, the “concentration of venetoclax in the aqueous phase” value in data set [4] (LBFs loaded with free base, dispersion and digestion) was below 50 µg/mL. Besides, the dose precipitated result in data set [4] (medium- and long-chain formulations) is given as “greater than 80%”. Moreover, the concentration in solution in “Biorelevant solubility” (biorelevant media (FaSSIF-supplemented Tris-maleate buffer), fassif, thermodynamic from solid) (solubility) came to 5.5 ± 1 µg/mL (≈ 6.33 µM).
Regarding `CC1(C)CCC(CN2CCN(c3ccc(C(=O)NS(=O)(=O)c4ccc(NCC5CCOCC5)c([N+](=O)[O-])c4)c(Oc4cnc5[nH]ccc5c4)c3)CC2)=C(c2ccc(Cl)cc2)C1.CCCCCCCCCCCCS(=O)(=O)O` [venetoclax dodecanesulfonate], in data set [1], the “apparent equilibrium solubility in long-chain LBF” value was above 25 mg/g and the “apparent equilibrium solubility in medium-chain LBF” value is reported as above 50 mg/g. The biorelevant solubility in the data set “Biorelevant solubility” turned out to be 9.8 ± 1.4 µg/mL.
In turn, `CC1(C)CCC(CN2CCN(c3ccc(C(=O)NS(=O)(=O)c4ccc(NCC5CCOCC5)c([N+](=O)[O-])c4)c(Oc4cnc5[nH]ccc5c4)c3)CC2)=C(c2ccc(Cl)cc2)C1.CCCCCCCCCCOS(=O)(=O)O` [venetoclax decyl sulfate] returned a biorelevant solubility in the data set “Biorelevant solubility” of 10.3 ± 0.8 µg/mL.
On the same count and under the same terms, the same measure for `CC1(C)CCC(CN2CCN(c3ccc(C(=O)NS(=O)(=O)c4ccc(NCC5CCOCC5)c([N+](=O)[O-])c4)c(Oc4cnc5[nH]ccc5c4)c3)CC2)=C(c2ccc(Cl)cc2)C1.CCCCCCCCS(=O)(=O)O` [venetoclax octanesulfonate]: 7.4 ± 0.7 µg/mL.
